A short description of data set [1]: Partial mass balance of kb-NB142-70. Format: in vivo, mouse. The conditions noted are these: 5 min.
Data set [2] can be described thus: Urinary and fecal excretion. The conditions noted are these: for metabolite excreted in urine, % of dose: assuming equivalent UV absorption.
In data set [3] the test system is PC-3 human androgen independent prostate cancer cells. In words: MTT assay, in vitro cytotoxicity. It is filed as cell-based. The conditions noted are these: PC-3, 72 h. Background: Tetrazolium assays rely on reduction of a dye to a coloured formazan, in cell work by metabolically active cells.
Data set [4] has as its system all 3 PKD isoforms. To be noted: cited from earlier work.
The test system of data set [5] is PANC-1 pancreatic cancer cells. In words: MTT assay, in vitro cytotoxicity. Format: cell-based, human. To be noted: PANC-1, 72 h.
The subject of data set [6] is PC-3 xenografts. In words: Efficacy study in mice bearing PC-3 xenografts. To be noted: 25 mg/kg/day iv qdx5, PC-3 xenografts. It is filed as in vivo, C.B.-17 SCID mice.
Data set [7] is described as follows: β-glucuronidase treatment of urine. It is filed as in vitro ADME, mice. The conditions noted are these: 0-6 h urine, 37 °C, 24 h, 10,000 units.
The format of data set [8] is in vivo, C.B.-17 SCID mice.
The test system of data set [9] is PC-3 human androgen-independent prostate cancer cells. The conditions noted are these: PC-3 ref 34; cited from earlier work.
For data set [10], the system named is CFPAC-1 pancreatic cancer cells. In words: MTT assay, in vitro cytotoxicity. It is filed as cell-based, human. To be noted: CFPAC-1, 72 h.
Data set [11] is described as follows: Plasma protein binding, Rapid Equilibrium Dialysis. It is filed as in vitro ADME. (In general: In equilibrium dialysis only unbound substance equilibrates across the membrane.)
Data set [12] has as its system PANC-1 pancreatic cancer xenograft. The conditions noted are these: po 80 mg/kg qd × 21 ref 31; cited from earlier work.
The subject of data set [13] is CFPAC-1 xenografts. In words: Efficacy study in mice bearing CFPAC-1 xenografts. Format: in vivo, C.B.-17 SCID mice.
For data set [14] the following is noted: cited from earlier work.
The mark [15] stands for this setting: day 6, 50 mg/kg q3dx3, CFPAC-1 xenografts.

Each structure is given as a SMILES string. Where “and” joins values, the source holds several entries; their conditions need not be identical. Equal entries are not always repeated. Where two headings read alike, the source gives them in different places.

For orientation: IC50 means the concentration at which inhibition is half-maximal. In general, clearance refers to the rate of elimination divided by the concentration. The term Cmax denotes the maximum level reached in the sampled fluid or tissue. As usually defined, the EC50 is the concentration giving half of the maximal effect. Take `O=C1NCCSc2c1sc1ccc(O)cc21` [kb-NB142-70]: the “administered dose detectable in plasma and collected tissues as parent compound” value in data set [1] amounted to 12.5%. In addition, the “total administered dose detectable in plasma and collected tissues” value in data set [1] (parent plus metabolite) was 13.6 % of the dose. In [2] (0-6 h urine), the “urinary excretion of parent, % of dose” value is reported as 2.5% and the “metabolite excreted in urine, % of dose” value is reported as “approximately 7.6%”. Further, in data set [2] (6-24 h urine), the “urinary excretion of parent, % of dose” value came out at 0.1% and the “metabolite excreted in urine, % of dose” value was about 1.2%. In addition, the “fecal excretion, % of dose” value in [2] (mouse, in vivo) was determined as 0.67%. In data set [3], this compound showed an IC50 of 21 ± 6 µM. Moreover, the “potency relative to CID755673” value in data set [4] is at least 2 fold. The compound further yielded an IC50 in data set [5] of 34 ± 7 µM. Besides, in data set [6], the “effect on the growth of the tumor xenografts” value is reported as “no effect” and the “toxicity or changes in body weights” value is on record as “did not result in any toxicity or changes in the body weights”. Also, the “increase in parent on incubation of urine with β-glucuronidase” value in data set [7] is ~ 410%. Besides, in data set [8] (25 mg/kg iv), the “AUC0→∞ Brain” value was found to be 85 nmol·min/g, the “AUC0→∞ Fat” value is 1681 nmol·min/g, the “AUC0→∞ Heart” value worked out at 236 nmol·min/g and the “AUC0→∞ Kidney” value was 1712 nmol·min/g. In addition, in data set [8] (25 mg/kg iv), the “AUC0→∞ Liver” value was 266 nmol·min/g, the “AUC0→∞ Lung” value was found to be 377 nmol·min/g, the “AUC0→∞ Plasma” value is on record as 409 nmol·min/mL and the “AUC0→∞ RBC” value is 288 nmol·min/mL. In data set [8] (25 mg/kg iv), the “AUC0→∞ Skeletal Muscle” value is 748 nmol·min/g, the “AUC0→∞ Spleen” value was 288 nmol·min/g, the “AUC0→∞ Tumor” value was 731 nmol·min/g and the AUC for plasma is 409 nmol·min/mL. In data set [8] (25 mg/kg iv), this compound displayed an AUC for tumor of 731 nmol·min/mg, an AUC in fat of 1681 nmol·min/g, a clearance of 243 mL/min/kg and a plasma half-life of 6 min. For the same compound, in data set [8] (25 mg/kg iv), the volume of distribution entry was “approximately 2744 mL/kg”. Further, in data set [8] (25 mg/kg iv, at 5 min), the “kidney Cmax” value stood at 63 nmol/g and the “lung Cmax” value came out at 27 nmol/g. In [8] (25 mg/kg iv, observed at 10 min), the “PC-3 xenograft (tumor) Cmax” value was 11.8 nmol/g and 12 nmol/g. In data set [8] (25 mg/kg iv, brain concentrations lower than plasma), the “blood brain barrier crossing” value is on record as “appeared to cross the blood brain barrier”. In [8] (5 min after 25 mg/kg iv), this compound showed a Brain concentration of 6.34 ± 1.72 nmol/g, a Fat concentration of 9.92 ± 0.52 nmol/g, a Heart concentration of 14.5 ± 2.0 nmol/g and a Kidney concentration of 63.4 ± 13.7 nmol/g. Further, in [8] (5 min after 25 mg/kg iv), the Liver concentration is 23.4 ± 1.1 nmol/g, the Lung concentration came out at 26.8 ± 3.3 nmol/g, the Plasma concentration worked out at 36.9 ± 8.3 µM and the RBC concentration is 23.6 ± 1.7 nmol/mL. Further, in data set [8] (5 min after 25 mg/kg iv), the “Skeletal Muscle concentration” value came out at 18.4 ± 4.6 nmol/g, the Spleen concentration turned out to be 21.2 ± 3.8 nmol/g and the Tumor concentration was found to be 5.62 ± 1.63 nmol/g. In [8] (10 min after 25 mg/kg iv), this compound registered a Brain concentration of 5.07 ± 0.57 nmol/g, a Fat concentration of 8.93 ± 1.71 nmol/g, a Heart concentration of 13.1 ± 2.5 nmol/g and a Kidney concentration of 48.9 ± 15.8 nmol/g. In data set [8] (10 min after 25 mg/kg iv), this compound showed a Liver concentration of 6.41 ± 0.56 nmol/g, a Lung concentration of 16.7 ± 1.2 nmol/g, a Plasma concentration of 23.4 ± 7.4 µM and an RBC concentration of 13.2 ± 2.7 nmol/mL. Also, in [8] (10 min after 25 mg/kg iv), the “Skeletal Muscle concentration” value is 15.5 ± 4.0 nmol/g, the Spleen concentration is 12.6 ± 2.5 nmol/g and the Tumor concentration stood at 11.8 ± 4.0 nmol/g. In [8] (15 min after 25 mg/kg iv), this compound gave a Brain concentration of 2.40 ± 0.40 nmol/g, a Fat concentration of 6.65 ± 0.74 nmol/g, a Heart concentration of 6.23 ± 1.96 nmol/g and a Kidney concentration of 27.0 ± 12.4 nmol/g. Also, in data set [8] (15 min after 25 mg/kg iv), the Liver concentration was determined as 8.41 ± 0.29 nmol/g, the Lung concentration is 10.4 ± 4.9 nmol/g, the Plasma concentration is 10.3 ± 3.7 µM and the RBC concentration is 6.94 ± 2.26 nmol/mL. In data set [8] (15 min after 25 mg/kg iv), the “Skeletal Muscle concentration” value came to 9.45 ± 2.47 nmol/g, the Spleen concentration stood at 8.03 ± 3.39 nmol/g and the Tumor concentration turned out to be 5.22 ± 3.60 nmol/g. In [8] (30 min after 25 mg/kg iv), the Brain concentration worked out at 0.84 ± 0.11 nmol/g, the Fat concentration amounted to 2.80 ± 0.45 nmol/g, the Heart concentration stood at 2.60 ± 0.53 nmol/g and the Kidney concentration was 10.1 ± 2.0 nmol/g. Besides, in [8] (30 min after 25 mg/kg iv), the Lung concentration was 2.95 ± 1.69 nmol/g, the Plasma concentration came to 2.0 ± 1.9 µM, the RBC concentration was 2.31 ± 1.70 nmol/mL and the “Skeletal Muscle concentration” value worked out at 2.28 ± 0.56 nmol/g. In [8] (30 min after 25 mg/kg iv), this compound registered a Tumor concentration of 4.22 ± 1.92 nmol/g. Besides, in data set [8] (60 min after 25 mg/kg iv), the Fat concentration is 2.62 ± 1.35 nmol/g, the Kidney concentration came to 2.87 ± 0.56 nmol/g, the “Skeletal Muscle concentration” value amounted to 1.05 ± 0.02 nmol/g and the Tumor concentration came to 1.24 ± 0.95 nmol/g. In addition, in data set [8] (120 min after 25 mg/kg iv), the Fat concentration is 0.77 ± 0.13 nmol/g, the Kidney concentration was 3.76 ± 0.82 nmol/g, the “Skeletal Muscle concentration” value is 0.95 ± 0.01 nmol/g and the Tumor concentration was 0.79 ± 0.32 nmol/g. Moreover, in [8] (240 min after 25 mg/kg iv), the Fat concentration is 0.45 ± 0.06 nmol/g, the Kidney concentration was determined as 1.78 ± 0.29 nmol/g, the “Skeletal Muscle concentration” value was determined as 1.00 ± 0.01 nmol/g and the Tumor concentration amounted to 0.57 ± 0.60 nmol/g. In data set [8] (360 min after 25 mg/kg iv), the Fat concentration worked out at 0.36 ± 0.03 nmol/g, the “Skeletal Muscle concentration” value worked out at 0.97 ± 0.06 nmol/g and the Tumor concentration is 1.21 ± 0.78 nmol/g. The compound also registered a Fat concentration in data set [8] (960 min after 25 mg/kg iv) of 0.85 ± 0.42 nmol/g. The compound also came in with a Fat concentration in data set [8] (1440 min after 25 mg/kg iv) of 0.44 ± 0.07 nmol/g. For the same compound, the Cmax in data set [8] (read-out: Plasma Cmax, 25 mg/kg iv, observed at 5 min) is 36.9 µM and 37 µM. Also, the EC50 in data set [9] was 8 µM. For the same compound, in data set [10], the IC50 was determined as 5.2 ± 0.1 µM. The plasma protein bound in data set [11] (0.3 μg/mL) is 78%. This compound had a plasma protein bound in [11] (3 μg/mL) of 78%.

With `CC[C@@H](N)CNc1ccnc(-c2cc(-c3cnn(C)c3)ccc2O)n1.Cl.Cl` [CRT0066101], in data set [12], the “growth of PANC-1 xenograft” value is given as “slowed the growth”.

Consider `Nc1ccn([C@@H]2O[C@H](CO)[C@@H](O)C2(F)F)c(=O)n1` [gemcitabine], for which, in data set [13] (50 mg/kg q3dx3, CFPAC-1 xenografts, control 2.2 days), the tumor doubling time is given as 10.4 days. For the same compound, in [13] (setting [15]), the “T/C of mean tumor volume” value is given as 22% and the mean tumor volume came to 335 mm^3.

`COc1ncc2sc3c(c2n1)SCCNC3=O` [kmg-NB4-23]: the aqueous solubility entry in data set [14] is given as “poor”.

Take `O=C1NCCCc2c1oc1ccc(O)cc21` [CID755673, reference compound]: the IC50 in data set [4] (against all 3 PKD isoforms ref 33) is 0.2 to 0.3 µM.

The record behind these values is PMC3557573 (Cancer chemotherapy and pharmacology, 2012).
